Reference: PMC7377239, “Cardiovascular Effects of Polychlorinated Biphenyls and Their Major Metabolites” (Environmental Health Perspectives, 2020)
Where a name gives a salt, the structure may show the parent alone. Read-outs that look alike come from different tables or passages of the source.

What was measured:
[1] = test system: iCell cardiomyocytes (human iPSC-derived cardiomyocytes); assay: High-content imaging of cytotoxicity and mitochondrial integrity in iPSC-CMs; assay type: cell-based; conditions: Homo sapiens; for viability at 0.01 µM / activity at 0.01 µM / viability at 0.1 µM / activity at 0.1 µM / viability at 1 µM / activity at 1 µM / viability at 10 µM / activity at 10 µM / viability at 100 µM / activity at 100 µM: Cardiomyocyte, 0.00 µM = 100.00; for viability at 0.1 µM / activity at 0.1 µM: 0.10 µM; for minimal effective concentration: iPSC-CM
Procedure, shortened: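 Readouts from high-content images were normalized to vehicle controls containing 0.5% vol/vol DMSO. They were fit to a four-parameter logistic model in R. Points of departure were set using a cutoff of one standard deviation across vehicle control means. Where no concentration–response was seen, the top tested concentration of 100μM was assigned as the no observable adverse effect level.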

HUVECs = assay: High-content imaging cytotoxicity in HUVECs, 24 h; assay type: cell-based, human; conditions: Homo sapiens, HUVEC, 24 h, HUVECs; for viability at 0.01 µM / activity at 0.01 µM / viability at 0.1 µM / activity at 0.1 µM / viability at 1 µM / activity at 1 µM / viability at 10 µM / activity at 10 µM / viability at 100 µM / activity at 100 µM: 0.00 µM = 100.00; for viability at 0.1 µM / activity at 0.1 µM: 0.10 µM; for minimal effective concentration: top concentration 100.00 µM
Procedure, shortened: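 HUVECs (passages 1–5) were plated at 750 cells/well without fibronectin, grown to a monolayer (3–5 d) and exposed to compounds for 24 h at 37°C, 5% CO2. Hoechst 33342, MitoTracker Orange and calcein AM staining was imaged at 10×; readouts were normalized to 0.5% DMSO vehicle and fit to a four-parameter logistic model.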

[2] = 24 hr, read-out: huvec.cyto.24hr
[3] = 24 hr, read-out: huvec.mito.24hr
[4] = 24 hr, read-out: huvec.mitoint.24hr
[5] = 24 hr, read-out: huvec.nma.24hr
[6] = 24 hrs, read-out: huvec.tc.24hrs

Structure (SMILES): O=S(=O)(O)Oc1cccc(-c2ccc(Cl)cc2)c1 [3'-yl PCB 3 sulfate]
- viability at 0.01 µM ([1]; 1.5 h, read-out: cm.cam.90min): 99.5%
- activity at 0.01 µM ([1]; 1.5 h, read-out: cm.mii.90min): 98.4%
- activity at 0.01 µM ([1]; 1.5 h, read-out: cm.mito.90min): 99.8%
- viability at 0.01 µM ([1]; 1.5 h, read-out: cm.tc.90min): 99.9%
- viability at 0.1 µM ([1]; 1.5 h, read-out: cm.cam.90min): 98.2%
- activity at 0.1 µM ([1]; 1.5 h, read-out: cm.mii.90min): 97.1%
- activity at 0.1 µM ([1]; 1.5 h, read-out: cm.mito.90min): 98.3%
- viability at 0.1 µM ([1]; 1.5 h, read-out: cm.tc.90min): 98.4%
- viability at 1 µM ([1]; 1.5 h, read-out: cm.cam.90min): 102%
- activity at 1 µM ([1]; 1.5 h, read-out: cm.mii.90min): 99.8%
- activity at 1 µM ([1]; 1.5 h, read-out: cm.mito.90min): 102%
- viability at 1 µM ([1]; 1.5 h, read-out: cm.tc.90min): 102%
- viability at 10 µM ([1]; 1.5 h, read-out: cm.cam.90min): 95.4%
- activity at 10 µM ([1]; 1.5 h, read-out: cm.mii.90min): 104%
- activity at 10 µM ([1]; 1.5 h, read-out: cm.mito.90min): 95.4%
- viability at 10 µM ([1]; 1.5 h, read-out: cm.tc.90min): 95.3%
- viability at 100 µM ([1]; 1.5 h, read-out: cm.cam.90min): 99%
- activity at 100 µM ([1]; 1.5 h, read-out: cm.mii.90min): 91.3%
- activity at 100 µM ([1]; 1.5 h, read-out: cm.mito.90min): 99.3%
- viability at 100 µM ([1]; 1.5 h, read-out: cm.tc.90min): 99.3%
- viability at 0.01 µM ([1]; 24 h, read-out: cm.cam.24hrs): 97.1%
- activity at 0.01 µM ([1]; 24 h, read-out: cm.mii.24hrs): 93.8%
- activity at 0.01 µM ([1]; 24 h, read-out: cm.mito.24hrs): 95.4%
- viability at 0.01 µM ([1]; 24 h, read-out: cm.tc.24hrs): 98%
- viability at 0.1 µM ([1]; 24 h, read-out: cm.cam.24hrs): 105%
- activity at 0.1 µM ([1]; 24 h, read-out: cm.mii.24hrs): 89.9%
- activity at 0.1 µM ([1]; 24 h, read-out: cm.mito.24hrs): 105%
- viability at 0.1 µM ([1]; 24 h, read-out: cm.tc.24hrs): 105%
- viability at 1 µM ([1]; 24 h, read-out: cm.cam.24hrs): 101%
- activity at 1 µM ([1]; 24 h, read-out: cm.mii.24hrs): 100%
- activity at 1 µM ([1]; 24 h, read-out: cm.mito.24hrs): 99.9%
- viability at 1 µM ([1]; 24 h, read-out: cm.tc.24hrs): 102%
- viability at 10 µM ([1]; 24 h, read-out: cm.cam.24hrs): 103%
- activity at 10 µM ([1]; 24 h, read-out: cm.mii.24hrs): 79.2%
- activity at 10 µM ([1]; 24 h, read-out: cm.mito.24hrs): 104%
- viability at 10 µM ([1]; 24 h, read-out: cm.tc.24hrs): 103%
- viability at 100 µM ([1]; 24 h, read-out: cm.cam.24hrs): 97%
- activity at 100 µM ([1]; 24 h, read-out: cm.mii.24hrs): 88.7%
- activity at 100 µM ([1]; 24 h, read-out: cm.mito.24hrs): 97.8%
- viability at 100 µM ([1]; 24 h, read-out: cm.tc.24hrs): 97.2%
- minimal effective concentration ([1]; 1.5 h, read-out: cm.cam.90min POD): 100 µM
- minimal effective concentration ([1]; 1.5 h, read-out: cm.mii.90min POD): 89.9 µM
- minimal effective concentration ([1]; 1.5 h, read-out: cm.mito.90min POD): 100 µM
- minimal effective concentration ([1]; 1.5 h, read-out: cm.tc.90min POD): 100 µM
- minimal effective concentration ([1]; 24 h, read-out: cm.cam.24hrs POD): 100 µM
- minimal effective concentration ([1]; 24 h, read-out: cm.mii.24hrs POD): 100 µM
- minimal effective concentration ([1]; 24 h, read-out: cm.mito.24hrs POD): 100 µM
- minimal effective concentration ([1]; 24 h, read-out: cm.tc.24hrs POD): 100 µM
- viability at 0.01 µM (HUVECs; [2]): 96%
- activity at 0.01 µM (HUVECs; [3]): 95.2%
- activity at 0.01 µM (HUVECs; [4]): 93.5%
- activity at 0.01 µM (HUVECs; [5]): 100%
- viability at 0.1 µM (HUVECs; [2]): 97%
- activity at 0.1 µM (HUVECs; [3]): 97.2%
- activity at 0.1 µM (HUVECs; [4]): 105%
- activity at 0.1 µM (HUVECs; [5]): 101%
- viability at 1 µM (HUVECs; [2]): 92.7%
- activity at 1 µM (HUVECs; [3]): 92.1%
- activity at 1 µM (HUVECs; [4]): 104%
- activity at 1 µM (HUVECs; [5]): 101%
- viability at 10 µM (HUVECs; [2]): 119%
- activity at 10 µM (HUVECs; [3]): 118%
- activity at 10 µM (HUVECs; [4]): 89.3%
- activity at 10 µM (HUVECs; [5]): 92.6%
- viability at 100 µM (HUVECs; [2]): 88%
- activity at 100 µM (HUVECs; [3]): 87.5%
- activity at 100 µM (HUVECs; [4]): 102%
- activity at 100 µM (HUVECs; [5]): 94.9%
- minimal effective concentration (HUVECs; 24 hr, read-out: huvec.cyto.24hr POD): 100 µM
- minimal effective concentration (HUVECs; 24 hr, read-out: huvec.mito.24hr POD): 100 µM
- minimal effective concentration (HUVECs; 24 hr, read-out: huvec.mitoint.24hr POD): 100 µM
- minimal effective concentration (HUVECs; 24 hr, read-out: huvec.nma.24hr POD): 100 µM
- viability at 0.01 µM (HUVECs; [6]): 96%
- viability at 0.1 µM (HUVECs; [6]): 97.1%
- viability at 1 µM (HUVECs; [6]): 92.7%
- viability at 10 µM (HUVECs; [6]): 119%
- viability at 100 µM (HUVECs; [6]): 88.2%
- minimal effective concentration (HUVECs; 24 hrs, read-out: huvec.tc.24hrs POD): 100 µM
